Experiment [1] has as its system Rattus norvegicus. Nature of the experiment: Antinociceptive activity in Wistar albino rat assessed as latency in reaction time required for thermal stimulus-induced tail flicking at 5 mg/kg, po after 30 mins by analgesiometric analysis (RVb=3.33 +/- 0.21 seconds). In kind it is functional.
In experiment [2] the test system is Rattus norvegicus. Put plainly: Antinociceptive activity in Wistar albino rat assessed as latency in reaction time required for thermal stimulus-induced tail flicking at 5 mg/kg, po after 120 mins by analgesiometric analysis (RVb=3.33 +/- 0.21 seconds). Type of experiment: functional.
Experiment [3] relates to Rattus norvegicus. Put plainly: Antinociceptive activity in Wistar albino rat assessed as latency in reaction time required for thermal stimulus-induced tail flicking at 5 mg/kg, po after 60 mins by analgesiometric analysis (RVb=3.16 +/- 0.16 seconds). In kind it is functional.
The test system of experiment [4] is Rattus norvegicus. Put plainly: Antinociceptive activity in Wistar albino rat assessed as latency in reaction time required for thermal stimulus-induced tail flicking at 5 mg/kg, po after 180 mins by analgesiometric analysis (RVb=3.16 +/- 0.16 seconds). In kind it is functional.
Another experiment deals with Mus musculus. Nature of the experiment: Antinociceptive activity in Swiss albino mouse assessed as protection against acetic acid-induced abdominal constriction at 100 mg/kg, po measured for 10 mins after 5 mins of acetic acid challenge relative to control. Type of experiment: functional, Abdomen.

Turning to `CC(C)=CCN1CC[C@]2(C)c3cc(O)ccc3C[C@H]1[C@H]2C` [(+)-PENTAZOCINE], the Activity was 9.16 s with Rattus norvegicus [1], 9.3 s in the experiment on Rattus norvegicus [2], 9.33 s with Rattus norvegicus [3] and 8 s with Rattus norvegicus [4].

As for `CC(=O)Oc1ccccc1C(=O)O` [ASPIRIN], the Activity in the experiment with Mus musculus is on record as 62.35%.

The values are drawn from ChEMBL document CHEMBL1158448, “Synthesis and antinociceptive activity of pyrazolyl isoxazolines and pyrazolyl isoxazoles” (2009).
